Source: US8647119B1, “Methods and kits with fluorescent probes for caries detection” (President and Fellows of Harvard College, priority 2006, dated 2014)
Several values for one entry are separate records, joined by “and”; a condition that tells them apart may be missing. Equal entries are not always repeated.

Experiments:
[1] = part of regular human diet or excess excreted; cited from earlier work
[2] = Detection probes on interproximal models of extracted human teeth; conditions: for optical signal of early stage caries lesion with bound probe (photograph): synthetic tooth preparation, FIG. 3-8
Procedure: Interproximal models of extracted human teeth (molars and premolars) were fabricated using silicon impression materials. Interproximal enamel caries at about […] depth and at about 1.5 mm depth were prepared by using areas of interproximal contact regions. The dental preparations having synthetic caries were assessed by radiographic films (bitewings) and a microscope.
A cotton ball was saturated with the detection probe, and placed in contact with the region of the interproximal enamel caries. The bound probe was observed by illuminating over a varying set of different wavelengths of excitation light, followed by detecting light of fluorescent emissions. Furthermore, absorbance of the illuminating wavelengths was detected as appropriate for each probe.
Each tooth preparation having interproximal enamel caries and bound probe was illuminated and photographed.
(§1) Probes were tested for appropriate concentration, kinetics of binding and retention. Intensity of the illumination light, and the size of the illumination light beam were varied, and data were recorded for each probe. […] The concentration of each probe was varied to determine an optimum concentration for binding during a time period suitable for dental use. Durations of contacting were also tested, for example about 10 seconds, about 20 seconds, about 40 seconds, or about 60 seconds.

[3] = Hydrogen peroxide removal of OsteoSense 750 from five teeth having caries, absorbance at 750 nm; conditions: teeth A to E
[4] = cited from earlier work
[5] = Intensity and duration of fluorescence of diluted probes bound to caries; conditions: deep and shallow lesions
Procedure: as §1

SMILES | known toxicity [1] | optical signal of early stage caries lesion with bound probe (photograph) [2] | also measured
C=Cc1c(C)c2cc3nc(c4c5[n-]c(cc6nc(cc1[n-]2)C(C)=C6CC)c(C)c5C(=O)[C@@H]4C(=O)OC)[C@@H](CCC(=O)OC/C=C(\C)CCC[C@H](C)CCC[C@H](C)CCCC(C)C)[C@@H]3C.[Mg+2] [Chlorophyll A] | no known toxicity | Fluorescence of an early stage caries lesion was observed | interproximal caries observed with probe ([2]; excitation light, emission detected, FIG. 9): Interproximal caries were observed
OO [hydrogen peroxide] | – | – | % OsteoSense 750 removed (g) [3]: 80% and 93% and 88%
Cc1cc2nc3c(=O)[nH]c(=O)nc-3n(C[C@H](O)[C@H](O)[C@H](O)CO)c2cc1C [Riboflavin] | – | – | water solubility [4]: water soluble
C1=Cc2cc3ccc(cc4nc(cc5ccc(cc1n2)[nH]5)C=C4)[nH]3 [Porphyrin] | no known toxicity | Fluorescence of an early stage caries lesion was observed | –
CCN1C(=CC=CC=CC=CC2=[N+](CCCCCC(=O)O)c3ccc(S(=O)(=O)O)cc3C2(C)C)C(C)(C)c2cc(S(=O)(=O)[O-])ccc21 [Cy7] | – | – | fluorescent intensity compared to IR820 (ICG) ([5]; 1:10 and 1:100 dilutions): greater fluorescent intensity at each concentration and lesion depth compared to IR820 (ICG); retained fluorescence intensity compared to CardioGreen (ICG) ([5]; diluted 1:10): retained much greater intensity in both deep and shallow lesions compared to images of CardioGreen (ICG) diluted 1:10
COc1cccc2c1C(=O)c1c(O)c3c(c(O)c1C2=O)C[C@@](O)(C(=O)CO)C[C@@H]3O[C@H]1C[C@H](N)[C@H](O)[C@H](C)O1 [Doxorubicin] | – | Fluorescence of an early stage caries lesion was observed | –
